Data on 99 molecules can be found in ChEMBL document CHEMBL3507680, “University of Dundee, Gates Library screen for HepG2 cell viability”.

Molecules are shown by their SMILES.

A short description of this data set: Human HepG2 cell viability assay in 384 well format. The format is toxicity, cell-based. Details: dose 125 nL, time 70.5 hour; cytotoxicity at 70.5 h: concentration not given beside the values. To be noted: HepG2 cells, read-out: Inhibition.
As for `O=C(c1ccc2c(c1)CCC2)N1C[C@@H](CN2CCOCC2)[C@@H](CO)C1`, the cytotoxicity at 70.5 h is -6.01%.
As for `Cc1nc(C2CCCN2C(=O)c2ccc(=O)n(C)n2)no1` (centres undefined), the cytotoxicity at 70.5 h was -5.27%.
As for `O=C1NC[C@]2(CC[C@@H](C(=O)N3CCC(O)CC3)CC2)Oc2ccccc21`, the figure is -4.51%.
As for `COCCN1CCCC12CCCN(c1nncs1)C2` (centres undefined), the figure is -8.64%.
In the case of `CCc1nc(-c2noc3ccc(C(=O)N(C)CCOC)cc23)co1` it was -12.2%; in that of `CCCc1ccc(CN2CCN(C(=O)CC(C)C)[C@@H]3CS(=O)(=O)C[C@@H]32)o1`, -9.85%.
In the case of `Cc1ccc(CNC2CCCc3c2cnn3C)s1` (centres undefined), the cytotoxicity at 70.5 h is -4.42%.
As for `Cn1cc(CN2CC[C@H](O)[C@@H]2Cc2ccccc2)cn1`, the cytotoxicity at 70.5 h is -0.0718%.
Consider `CN(C)C(=O)COC1COC2(CCN(CC3CC3)CC2)C1` (centres undefined), for which the cytotoxicity at 70.5 h is -5.8%.
In the case of `c1ccc(CN2C[C@@H]3OCCN(c4ncccn4)[C@@H]3C2)nc1`, the cytotoxicity at 70.5 h is -12.9%.
As for `c1ccc(OCc2n[nH]c3c2CN(CC2CC2)C3)nc1`, the figure is -2.5%; as for `CC(C)CC(=O)N1CCN(C(=O)NC(C)C)CC2(CC(=O)N(C)C2)C1` (centres undefined), -18.5%.
As to `C/C=C(/C)C(=O)NS(=O)(=O)c1ccc(Cl)cn1`, the cytotoxicity at 70.5 h was -0.512%.
As for `COCC(=O)N1CCO[C@H]2[C@H](OC)CC[C@@H]21`, the figure is -16.2%; as for `Cc1noc(C)c1C(=O)NCc1ccc(N2CCOCC2)nc1`, -8.43%; as for `Cc1nonc1-c1nc(C(C)C)nn1-c1ccc2c(c1)OCO2`, -3.15%.
As for `CC(C)N1CCc2onc(Cn3cccn3)c2C1`, the cytotoxicity at 70.5 h is -5.3%.
Turning to `CCN1CCC(CC(=O)NCCc2nc(C)cc(C)n2)CC1`, the cytotoxicity at 70.5 h was -3.38%.
For `NC(=O)c1cc(C2CCCN(Cc3ccc4c(c3)OCCO4)C2)n[nH]1` (centres undefined), the cytotoxicity at 70.5 h was -22.9%.
For the molecule `CCc1ccc(CN2CCC3(CC2)C(=O)N(C)CCN3CC)cc1`, the cytotoxicity at 70.5 h is -10.4%.
In the case of `Cc1ccc(CNC(=O)C2CCN(C(=O)C(C)C)CC2)n1C` it was -9.28%.
Regarding `CCN1CCN(C(C)CNC(=O)Nc2nc3ccccc3s2)CC1` (centres undefined), the cytotoxicity at 70.5 h is -7.3%.
In the case of `N#Cc1ccccc1CN(CC(N)=O)C1CCCC1` it was -7.95%.
In the case of `CCc1cccc(N2CCC(NC(=O)c3ccco3)CC2)c1` it was -3.29%; in that of `CN(Cc1cccs1)Cc1nnsc1Cl`, -4.68%; in that of `CC(C)c1n[nH]c(C(=O)Nc2cc[nH]n2)c1Br`, 7.8%.
As to `c1cc(-c2cnc(NC3CC3)nc2[C@@H]2CCCO2)ccn1`, the cytotoxicity at 70.5 h was -8.62%.
For `Cc1nn(C)c(N(C)C)c1CNCC(O)COc1ccccc1` (centres undefined), the cytotoxicity at 70.5 h is -0.0724%.
As for `Cc1cccc(CN2CCC(NCC3CNc4cc(C)nn4C3)CC2)c1` (centres undefined), the figure is -6.82%; as for `Cc1c2nnn(CC(=O)N(C)C)c(=O)c2nn1C`, -8.25%; as for `CC(=O)N1CCC2(CCN(S(=O)(=O)c3ccccc3)CC2)C1`, 22.3%.
In the case of `O=C(c1cc(C2CC2)n[nH]1)N1C[C@H]2CC[C@](O)(c3ccccc3F)[C@H]2C1` it was -2.83%.
As for `CN(C(=O)COC1CCCC1)C1CCN(CC2CCOC2)CC1` (centres undefined), the figure is -11.5%; as for `O=C(NCCCn1cccn1)c1nc2ccccc2[nH]1`, -10.1%.
Consider `c1cnn(CCCO[C@@H]2CC[C@H]3[C@H]2OCCN3CC2CCOCC2)c1`, for which the cytotoxicity at 70.5 h was -5.34%.
As to `CCSC(C)c1nc(-c2ccc(C)nn2)no1` (centres undefined), the cytotoxicity at 70.5 h came to 4.73%.
Consider `CN(Cc1n[nH]c2c1CCC2)C(=O)CCc1cc2n(n1)CCCNC2`, for which the cytotoxicity at 70.5 h was -12.8%.
Regarding `Fc1ccc(CN[C@@H]2COC[C@H]2c2ccc(F)cc2)cc1`, the cytotoxicity at 70.5 h stood at 0.602%.
For the molecule `COc1c(C(=O)NCC2CCCO2)nnn1Cc1ccccc1` (centres undefined), the cytotoxicity at 70.5 h was -3.19%.
As for `CC(CCNC(=O)NCCNc1cnccn1)c1ccccc1` (centres undefined), the figure is -13.6%; as for `CSC(C)C(=O)N1CCCN(Cc2nccn2C)CC1` (centres undefined), -1.04%; as for `CN(C)C(=O)c1cc2c(nc1NCC1CC1)CCNCC2`, 29.7%.
In the case of `CC(C)CN1CCS(=O)(=O)[C@@H]2CCN(S(=O)(=O)C3CC3)CC[C@@H]21` it was -16.5%.
Consider `Cn1nc(C(=O)NCc2cccnc2)c2c1CCS(=O)(=O)C2`, for which the cytotoxicity at 70.5 h stood at 24.8%.
As for `CN(C)c1ccc(C(=O)N(CCO)CC2CC2)c(F)c1`, the figure is 30.4%.
As for `Cn1cc(CN2CCc3c(c(COCC#N)nn3C)C2)cn1`, the figure is -13.6%; as for `CC(C)n1cc(N2Cc3nc(N4CCOCC4)ncc3C2=O)cn1`, 15.4%.
As for `Cc1nn(CC(=O)N2CCN(Cc3cnn(C)c3C)CC2)cc1Br`, the figure is 29.4%; as for `N[C@@H]1c2ccccc2C2(CCN(C(=O)c3ccc(Cl)cn3)CC2)[C@H]1O`, 18.5%.
In the case of `O=c1c2ccccc2nnn1CN(CC1CCOC1)C1CC1` (centres undefined), the cytotoxicity at 70.5 h is -2.98%.
As for `CN(C)C(=O)C1CN(Cc2ccccc2)CCN(S(C)(=O)=O)C1` (centres undefined), the figure is -6.37%; as for `Cc1cc(CNC(=O)Nc2ccc(C(=O)NC3CC3)cc2)no1`, -14.3%.
In the case of `Cc1cccc(C)c1OC1CN(Cc2cnc(N3CCCC3)nc2)C1` it was 27.2%; in that of `CN(C)c1nccc(NC(=O)c2ccncc2)n1`, -7.12%; in that of `CC(C)NC(=O)c1cc(Br)c2c(c1)OCCO2`, -6.96%.
In the case of `CC(Cn1cccn1)NCCS(=O)(=O)c1ccc(Cl)cc1` (centres undefined), the cytotoxicity at 70.5 h is -9.68%.
As for `CN(Cc1ccsc1)C(=O)C1CCC(=O)N(Cc2ccccn2)C1` (centres undefined), the figure is -5.03%.
As for `O=C(CN1CCC(c2ccnn2CCO)CC1)NCC1CCCCC1`, the figure is -3.43%; as for `CCN1CCO[C@]2(CCC[C@H]2COCc2csc(C)n2)C1`, -7.19%.
As for `CCc1ccc(CN(C)C(=O)c2cnc3c(c2)nc(N)n3CC)nc1`, the figure is -8.01%; as for `Cc1nn(C)c(C)c1C1CCCN1C(=O)CCc1cscn1` (centres undefined), -6.08%.
For the molecule `N#Cc1cccc(CN2C[C@@H](F)[C@@H](OCc3nc4cnccc4[nH]3)C2)c1`, the cytotoxicity at 70.5 h was found to be 11.4%.
On to `CCS(=O)(=O)CCN(C)Cc1cc(C)ccc1OC`, for which the cytotoxicity at 70.5 h was -13.6%.
In the case of `CN1CCOCC12CCN(C(=O)C1CCC1)CC2` it was 1.58%.
As for `CN(CCOCC1CC1)C(=O)Nc1ccc([S+](C)[O-])c(F)c1` (centres undefined), the cytotoxicity at 70.5 h stood at 21.5%.
In the case of `CN(Cc1ccc(Cl)c(Cl)c1)C(=O)CNC(N)=O` it was 0.00328%; in that of `COc1cc(/C=C/c2ncc(C(=O)O)s2)cc(OC)c1`, 14.7%; in that of `CCOc1ccccc1Oc1ccc(CN)cn1`, -7.48%.
In the case of `CCc1cnc(NCC(c2cccnc2)N2CCOCC2)nc1` (centres undefined) it was -1.2%; in that of `Cc1ncoc1C(=O)N1CCOC(CC2CCCCC2)C1` (centres undefined), -5.24%; in that of `CC(C(N)=O)N1CCc2onc(-c3cccc(F)c3)c2C1` (centres undefined), -12.5%.
Take `CN(Cc1ccncc1)C(=O)c1ccc(F)c(NS(C)(=O)=O)c1`: the cytotoxicity at 70.5 h was -4.24%.
In the case of `O=C([C@H]1CN(Cc2nccs2)C[C@H]2OCC[C@@H]12)N1CCCCO1` it was -10.9%.
With `O=C(c1ccno1)N1CCC2(CC1)C(=O)N(CC1CC1)c1ccccc12`, the cytotoxicity at 70.5 h is -17.3%.
In the case of `CC(C)c1n[nH]c(C2CN(C(=O)c3cc(C4CC4)on3)CCO2)n1` (centres undefined) it was -11.3%.
Take `Cn1cc(CCC(=O)N2CCN(Cc3ccncc3)CC2)cn1`: the cytotoxicity at 70.5 h is 2.28%.
Regarding `CC(C)NC(=O)N1CCC2(COCc3cnc(-c4ccccc4)nc32)C1` (centres undefined), the cytotoxicity at 70.5 h is 9.3%.
In the case of `OCC1CCN(C[C@@H]2CN(C3Cc4ccccc4C3)C[C@@H]2CO)CC1` it was -4.9%; in that of `Cc1nc(NCC23CCCN2CCC3)cc(C2CCCNC2)n1` (centres undefined), -4.8%; in that of `Clc1snnc1CN(Cc1cccs1)C1CC1`, -5.36%.
Take `O=C(NCCN1CCCCC1)c1ccn(-c2ccccc2)n1`: the cytotoxicity at 70.5 h is 24.7%.
In the case of `COCCC(C)NC(=O)Nc1ccc(N2CCOC2=O)c(OC)c1` (centres undefined) it was -11%; in that of `CNC(=O)C1(Cc2cc(C(C)C)no2)CCN(Cc2ccccn2)C1` (centres undefined), -0.0563%.
In the case of `O=C(c1ccncn1)N1CCC[C@]2(C[C@@H](OCc3ccccn3)CO2)C1` it was 10.5%.
For `CCS(=O)(=O)N1CCCC2(COCCN(c3cnccn3)C2)C1` (centres undefined), the cytotoxicity at 70.5 h was -2.48%.
As for `CN(C(=O)CC1=CCCCC1)C1CCCN(CCc2ccccc2)C1` (centres undefined), the figure is -5.66%; as for `Cc1nn(C)c(=O)c2nn(-c3ccc(Cl)cc3)c(C)c12`, -1.68%.
As for `Cc1cccc(CN2C[C@@H]3CN(C4CCOCC4)C[C@@H]3C2=O)c1`, the figure is -4.96%; as for `O=C(COc1cccc(F)c1)N1C[C@@H](O)[C@H](N2CCCC2)C1`, -10.1%.
Turning to `Cc1nn(C)c2ncc(C(=O)N3CCNC(=O)C3)cc12`, the cytotoxicity at 70.5 h is -3.66%.
In the case of `NCC(=O)N1CCC(c2cccc(Oc3ccccc3)n2)CC1` it was -7.22%; in that of `CCN(CC(=O)Nc1cc(Cl)ccc1C)C(=O)c1ccc(=O)[nH]n1`, -2.64%.
In the case of `CC(C)CCc1n[nH]c(C(=O)O)c1Br` it was -7.1%; in that of `COc1ccc(OCc2cc(C(=O)N3CC=CC3)n[nH]2)c(Cl)c1`, -3%; in that of `O=C(c1csc(-c2ccco2)n1)N1CCN2CCCCC2C1` (centres undefined), -4.49%.
As for `CC(C)c1nn(C)c(N2CCOCC2)c1CNCc1cscn1`, the cytotoxicity at 70.5 h is -14.5%.
Regarding `Cc1csc(N2CCN(C(=O)CCc3ccccn3)CC2)n1`, the cytotoxicity at 70.5 h was -2.58%.
Regarding `COc1ccc(CN(Cc2cncn2C)CC2CCCO2)c(OC)c1` (centres undefined), the cytotoxicity at 70.5 h was 4.29%.
As for `O[C@@H]1CCN(CC2CC2)[C@H]1Cc1ccccc1`, the figure is -23%.
